The values below come from patent US20050003455A1, “Remedies for heart diseases” (priority 2001, published 2005).

In data set [1] the test system is primary cultures of rat myocardial cells. Description: Staurosporine-induced decrease in cell viability (WST-8) in primary cultures of rat myocardial cells. The class given is cell-based. Particulars: for cytotoxicity induced in cultured myocardial cells: 1 μM staurosporine, HCO3−-free culture medium versus ordinary culture medium. The source says: The myocardial cells used in the experiments were those of primary cultures from rats. In order to prepare primary cultures of myocardial cells, heart was excised from SD rats at day 20 of pregnancy (purchased from Japan SLC Co., Ltd.) and enzyme-digested with collagenase (Worthington Biochemical Corp.) and trypsin (GIBCO BRL, Gaithersberg, Md.) to isolate myocardial cells and make a cell suspension of them. As an ordinary culture medium, D-MEM supplemented with fetal bovine serum (FBS) to give a concentration of 10% (GIBCO BRL, Gaithersberg, Md.) was employed. For checking to see if Cl^−/HCO3^− anion exchangers (AEs) would be involved in apoptosis in cardiovascular cells and in protection from it, Leibovitz's L-15 Medium supplemented with FBS to give a concentration of 10% (GIBCO BRL, Gaithersberg, Md.) was employed as an HCO3^−-free culture medium and the result from it was compared with the result from the ordinary culture medium. The HCO3^−-free culture medium was employed in order to suppress the function of the Cl^−/HCO3^− anion exchangers by depleting HCO3^−. The Cl^−/HCO3^− anion exchangers are widely distributed in erythrocytes and other tissues, AE1 being expressed primarily in erythrocytes and AE3 in myocardial cells and neurons. By coupling the exclusion of intracellular Cl^− to the outside of cells and intake of extracellular HCO3^− into the cells, the exchangers function as an intracellular Cl^− and pH regulating system and they also work as a cell volume regulating system during regulatory volume increase (RVI). In a pathological context, it is speculated that the exchangers participate in the process of myocardial cells' acidification which accompanies ischemia.
A suspension of myocardial cells at a density of 3-5×10^5 cells/mL was dispensed in 24-well multiwell plates (Falcon) in an amount of 0.5 mL per well, or in 96-well multiwell plates (Falcon) in an amount of 0.1 mL per well, or in 12-well multiwell plates (Falcon) in an mount of 1 mL per well. The plates were placed in a CO2 incubator and cultured in 5% CO2 at 37° C. for 2-3 days. The thus cultured cells were used in subsequent experiments.
A control group consisted of three culture media, a cell-free medium (blank), a cell-containing medium alone (D-MEM) and 0.3% DMSO [D-MEM supplemented with 0.3% DMSO (DOJINDO LABORATORIES, Kumamoto, Japan)]. A test group consisted of three culture media containing a drug or drugs under specified conditions, i.e., a solution of 1 μM staurosporine (Sigma) dissolved in 0.3% DMSO, a mixed solution of the 1 μM staurosporine and 125-1000 μM SITS (SIGMA CHEMICAL Co., St. Louis, Mo., USA), and a mixed solution of the 1 μM staurosporine and 62.5-250 μM DIDS (SIGMA CHEMICAL Co., St. Louis, Mo., USA); the culture media of the test group are hereunder referred to as “conditioned culture media”.
Specifically, after aspirating away a culture medium, a fresh medium of the control group or a conditioned culture medium of interest was added in 24-well multiwell plates in an amount of 0.5 mL/well. After adding the conditioned culture medium, the plates were placed in a CO2 incubator and cultured in 5% CO2 at 37° C. for 2-4 hours. When a conditioned culture medium based on the HCO3^−-free culture medium was added, the plates were placed in an atmospheric incubator and cultured at 37° C. […]

Data set [2] deals with caspase-3 activity of cultured rat myocardial cells. Description: Staurosporine-induced increase in caspase-3 activity of cultured myocardial cells (Caspase-3 Assay Kit, Fluorimetric; AMC formation). The format is cell-based. Conditions: 1 μM staurosporine + 250 μM DIDS, 12-well multiwell plates, FIG. 5. The method, then: The caspase-3 activity of the thus prepared cells was measured with Caspase-3 Assay Kit, Fluorimetric (SIGMA CHEMICAL, Co., St. Louis, Mo., USA).
More specifically, 12-well multiwell plates were cultured for 2 hours after adding a conditioned culture solution, which was then removed and further cultivation was effected for an appropriate period, mostly for 2 hours; thereafter, cell lysates were prepared using Caspase-3 Assay Kit, Fluorimetric; in the subsequent stage, the amount of formation of specific fluorochrome 7-amino-4-methylcoumarin (AMC) was measured by means of a fluorometric microplate reader (SPECTRA Fluor, Wako Pure Chemical Industries, Ltd., Osaka, Japan) according to the procedure of measurement with the Kit; and the amount of AMC formation was used as an index of caspase-3 activity. […]

As to `O=S(=O)(O)c1cc(N=C=S)ccc1C=Cc1ccc(N=C=S)cc1S(=O)(=O)O` [DIDS, 4,4′-diisothiocyanostilbene-2,2′-disulfonic acid], the “suppression of the staurosporine-induced drop in cell viability” value in data set [1] (1 μM staurosporine + 62.5, 125 or 250 μM DIDS, 24-well multiwell plates, FIG. 4) was “suppresses the drop in cell viability in a dose-dependent manner”. Further, the “suppression of the staurosporine-induced decrease in cell viability” value in data set [1] (HCO3−-free culture medium, 1 μM staurosporine + 62.5, 125 or 250 μM DIDS, 24-well multiwell plates, FIG. 6) is recorded as “suppressed the decrease in cell viability in a dose-dependent manner”. Also, in data set [1] (overall conclusion from Examples 1-6), the “apoptosis suppressing effect on myocardial cells” value is reported as “exhibit the apoptosis suppressing effect on myocardial cells”. Moreover, the “suppression of the staurosporine-induced increase in caspase-3 activity” value in data set [2] is “suppresses the staurosporine-induced increase in caspase-3 activity”.

For `CN[C@@H]1C[C@H]2O[C@@](C)([C@@H]1OC)n1c3ccccc3c3c4c(c5c6ccccc6n2c5c31)C(=O)NC4` [staurosporine], the “cytotoxicity induced in cultured myocardial cells” value is “comparable levels of cytotoxicity was induced by staurosporine” in data set [1] (24-well multiwell plates, FIG. 6) and “comparable levels of cytotoxicity was induced on the 96-well multiwell plates by staurosporine” in data set [1] (96-well multiwell plates, FIG. 7).
